In PubChem BioAssay (NCI):
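Briefly, cells in 96-well plates were exposed to five compound concentrations for 48 h, and endpoints were estimated by linear interpolation. TGI: concentration producing complete growth inhibition.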

Columns and labels:
Experiment in all cases: inhibition of tumour cell growth, NCI panel, 48 h
NCI-H460 lung = test system: NCI-H460 lung
OVCAR-8 ovarian = test system: OVCAR-8 ovarian
ACHN renal = test system: ACHN renal
MOLT-4 leukemia = test system: MOLT-4 leukemia
HT29 colon = test system: HT29 colon
786-0 renal = test system: 786-0 renal
OVCAR-4 ovarian = test system: OVCAR-4 ovarian
LXFL 529 NSCLC = test system: LXFL 529 NSCLC
SNB-78 CNS = test system: SNB-78 CNS
CAKI-1 renal = test system: CAKI-1 renal
SF-268 CNS = test system: SF-268 CNS
TK-10 renal = test system: TK-10 renal
UO-31 renal = test system: UO-31 renal
SK-MEL-28 melanoma = test system: SK-MEL-28 melanoma
SN12C renal = test system: SN12C renal
SK-MEL-5 melanoma = test system: SK-MEL-5 melanoma
A549 NSCLC = test system: A549 NSCLC
MALME-3M melanoma = test system: MALME-3M melanoma
OVCAR-3 ovarian = test system: OVCAR-3 ovarian
SNB-75 CNS = test system: SNB-75 CNS
M14 melanoma = test system: M14 melanoma
CCRF-CEM leukemia = test system: CCRF-CEM leukemia
NCI-H23 lung = test system: NCI-H23 lung
SF-295 CNS = test system: SF-295 CNS
U251 CNS = test system: U251 CNS
SW-620 colon = test system: SW-620 colon
HOP-62 NSCLC = test system: HOP-62 NSCLC
HCC-2998 colon = test system: HCC-2998 colon
A498 renal = test system: A498 renal
UACC-257 melanoma = test system: UACC-257 melanoma
RPMI-8226 leukemia = test system: RPMI-8226 leukemia
K-562 leukemia = test system: K-562 leukemia
EKVX NSCLC = test system: EKVX NSCLC
KM20L2 colon = test system: KM20L2 colon
OVCAR-5 ovarian = test system: OVCAR-5 ovarian
DLD-1 colon = test system: DLD-1 colon
NCI-H522 lung = test system: NCI-H522 lung
SK-MEL-2 melanoma = test system: SK-MEL-2 melanoma
SNB-19 CNS = test system: SNB-19 CNS
XF 498 CNS = test system: XF 498 CNS
HCT-15 colon = test system: HCT-15 colon
KM12 colon = test system: KM12 colon
COLO 205 colon = test system: COLO 205 colon
IGROV1 ovarian = test system: IGROV1 ovarian
HOP-92 NSCLC = test system: HOP-92 NSCLC
DMS 273 small cell lung = test system: DMS 273 small cell lung
LOX IMVI melanoma = test system: LOX IMVI melanoma
SR leukemia = test system: SR leukemia
UACC-62 melanoma = test system: UACC-62 melanoma
SK-OV-3 ovarian = test system: SK-OV-3 ovarian
SF-539 CNS = test system: SF-539 CNS
RXF 393 renal = test system: RXF 393 renal
M19-MEL melanoma = test system: M19-MEL melanoma
NCI-H226 lung = test system: NCI-H226 lung
DMS 114 small cell lung = test system: DMS 114 small cell lung
HCT-116 colon = test system: HCT-116 colon
HL-60(TB) leukemia = test system: HL-60(TB) leukemia
HOP-18 NSCLC = test system: HOP-18 NSCLC

Measured: TGI

C=CCN1C2Cc3cc(OC)c(OC)cc3C1Cc1cc(OC)c(OC)cc12
> 100 µM: NCI-H460 lung | OVCAR-8 ovarian | ACHN renal | MOLT-4 leukemia | HT29 colon | 786-0 renal | OVCAR-4 ovarian | LXFL 529 NSCLC | SNB-78 CNS | CAKI-1 renal | SF-268 CNS | TK-10 renal | UO-31 renal | SK-MEL-28 melanoma | SN12C renal | SK-MEL-5 melanoma | A549 NSCLC | MALME-3M melanoma | OVCAR-3 ovarian | SNB-75 CNS | M14 melanoma | CCRF-CEM leukemia | NCI-H23 lung | SF-295 CNS | U251 CNS | SW-620 colon | HOP-62 NSCLC | HCC-2998 colon | A498 renal | UACC-257 melanoma | RPMI-8226 leukemia | K-562 leukemia | EKVX NSCLC | KM20L2 colon | OVCAR-5 ovarian | DLD-1 colon | NCI-H522 lung | SK-MEL-2 melanoma | SNB-19 CNS | XF 498 CNS | HCT-15 colon | KM12 colon

CC1=C(O)C(=O)C2C(=O)C1C(C)C2c1ccc(C)cc1 (stereo not given)
> 100 µM: NCI-H460 lung | OVCAR-8 ovarian | ACHN renal | MOLT-4 leukemia | HT29 colon | 786-0 renal | COLO 205 colon | OVCAR-4 ovarian | LXFL 529 NSCLC | IGROV1 ovarian | SNB-78 CNS | CAKI-1 renal | HOP-92 NSCLC | DMS 273 small cell lung | SF-268 CNS | TK-10 renal | LOX IMVI melanoma | UO-31 renal | SK-MEL-28 melanoma | SK-MEL-5 melanoma | A549 NSCLC | MALME-3M melanoma | SR leukemia | UACC-62 melanoma | OVCAR-3 ovarian | SK-OV-3 ovarian | SNB-75 CNS | M14 melanoma | CCRF-CEM leukemia | NCI-H23 lung | SF-295 CNS | U251 CNS | SW-620 colon | HOP-62 NSCLC | HCC-2998 colon | SF-539 CNS | A498 renal | UACC-257 melanoma | RPMI-8226 leukemia | K-562 leukemia | EKVX NSCLC | KM20L2 colon | OVCAR-5 ovarian | DLD-1 colon | NCI-H522 lung | SK-MEL-2 melanoma | SNB-19 CNS | RXF 393 renal | M19-MEL melanoma | XF 498 CNS | HCT-15 colon | KM12 colon

COc1ccccc1-n1c(C)nc2ccccc2c1=O
> 100 µM: NCI-H460 lung | OVCAR-8 ovarian | ACHN renal | NCI-H226 lung | MOLT-4 leukemia | HT29 colon | 786-0 renal | COLO 205 colon | OVCAR-4 ovarian | DMS 114 small cell lung | LXFL 529 NSCLC | IGROV1 ovarian | SNB-78 CNS | HCT-116 colon | CAKI-1 renal | HOP-92 NSCLC | DMS 273 small cell lung | HL-60(TB) leukemia | SF-268 CNS | TK-10 renal | LOX IMVI melanoma | UO-31 renal | SK-MEL-28 melanoma | SN12C renal | SK-MEL-5 melanoma | A549 NSCLC | MALME-3M melanoma | SR leukemia | UACC-62 melanoma | OVCAR-3 ovarian | SK-OV-3 ovarian | SNB-75 CNS | M14 melanoma | CCRF-CEM leukemia | NCI-H23 lung | SF-295 CNS | U251 CNS | SW-620 colon | HOP-62 NSCLC | HCC-2998 colon | SF-539 CNS | A498 renal | UACC-257 melanoma | K-562 leukemia | EKVX NSCLC | KM20L2 colon | OVCAR-5 ovarian | DLD-1 colon | NCI-H522 lung | SK-MEL-2 melanoma | SNB-19 CNS | RXF 393 renal | M19-MEL melanoma | HCT-15 colon | KM12 colon | HOP-18 NSCLC

O=[N+]([O-])c1nccn1COCCI
> 100 µM: NCI-H460 lung | OVCAR-8 ovarian | ACHN renal | NCI-H226 lung | MOLT-4 leukemia | HT29 colon | 786-0 renal | COLO 205 colon | OVCAR-4 ovarian | DMS 114 small cell lung | LXFL 529 NSCLC | IGROV1 ovarian | SNB-78 CNS | HCT-116 colon | CAKI-1 renal | HOP-92 NSCLC | DMS 273 small cell lung | HL-60(TB) leukemia | SF-268 CNS | TK-10 renal | LOX IMVI melanoma | UO-31 renal | SK-MEL-28 melanoma | SN12C renal | SK-MEL-5 melanoma | A549 NSCLC | MALME-3M melanoma | SR leukemia | UACC-62 melanoma | OVCAR-3 ovarian | SK-OV-3 ovarian | SNB-75 CNS | M14 melanoma | CCRF-CEM leukemia | NCI-H23 lung | SF-295 CNS | U251 CNS | SW-620 colon | HOP-62 NSCLC | SF-539 CNS | UACC-257 melanoma | RPMI-8226 leukemia | K-562 leukemia | EKVX NSCLC | KM20L2 colon | OVCAR-5 ovarian | DLD-1 colon | NCI-H522 lung | SK-MEL-2 melanoma | SNB-19 CNS | M19-MEL melanoma | XF 498 CNS | HCT-15 colon | KM12 colon

C=CCOC(C)n1c(C)c(Br)c(=O)[nH]c1=O (stereo not given)
> 100 µM: NCI-H460 lung | OVCAR-8 ovarian | ACHN renal | NCI-H226 lung | MOLT-4 leukemia | HT29 colon | 786-0 renal | COLO 205 colon | DMS 114 small cell lung | LXFL 529 NSCLC | IGROV1 ovarian | HCT-116 colon | CAKI-1 renal | HOP-92 NSCLC | DMS 273 small cell lung | HL-60(TB) leukemia | SF-268 CNS | TK-10 renal | LOX IMVI melanoma | UO-31 renal | SK-MEL-28 melanoma | SN12C renal | SK-MEL-5 melanoma | A549 NSCLC | MALME-3M melanoma | SR leukemia | UACC-62 melanoma | OVCAR-3 ovarian | SK-OV-3 ovarian | SNB-75 CNS | CCRF-CEM leukemia | NCI-H23 lung | SF-295 CNS | U251 CNS | SW-620 colon | HCC-2998 colon | SF-539 CNS | A498 renal | UACC-257 melanoma | EKVX NSCLC | KM20L2 colon | OVCAR-5 ovarian | DLD-1 colon | NCI-H522 lung | SK-MEL-2 melanoma | SNB-19 CNS | RXF 393 renal | M19-MEL melanoma | XF 498 CNS | HCT-15 colon | KM12 colon
